Data on one compound can be found in paper PMC6361133, “A chemical-genetics approach to study the role of atypical Protein Kinase C in Drosophila” (Development (Cambridge, England), 2019).

For this assay, the target named is atypical Protein Kinase C (aPKC), analogue-sensitive aPKC^as4 (Drosophila melanogaster, UniProt A1Z9X0, I342A/T405A). The assay is described as follows: in vitro […]-ATP peptide kinase assay with immunoprecipitated FLAG-aPKC ([…] ATP, […] MgCl2). In kind it is biochemical.

A word on the IC50: it is the concentration at which inhibition is half-maximal. High values mean weaker potency, low ones greater potency.

atypical Protein Kinase C (aPKC), analogue-sensitive aPKC^as4, sequence (A1Z9X0 whole entry I342A/T405A): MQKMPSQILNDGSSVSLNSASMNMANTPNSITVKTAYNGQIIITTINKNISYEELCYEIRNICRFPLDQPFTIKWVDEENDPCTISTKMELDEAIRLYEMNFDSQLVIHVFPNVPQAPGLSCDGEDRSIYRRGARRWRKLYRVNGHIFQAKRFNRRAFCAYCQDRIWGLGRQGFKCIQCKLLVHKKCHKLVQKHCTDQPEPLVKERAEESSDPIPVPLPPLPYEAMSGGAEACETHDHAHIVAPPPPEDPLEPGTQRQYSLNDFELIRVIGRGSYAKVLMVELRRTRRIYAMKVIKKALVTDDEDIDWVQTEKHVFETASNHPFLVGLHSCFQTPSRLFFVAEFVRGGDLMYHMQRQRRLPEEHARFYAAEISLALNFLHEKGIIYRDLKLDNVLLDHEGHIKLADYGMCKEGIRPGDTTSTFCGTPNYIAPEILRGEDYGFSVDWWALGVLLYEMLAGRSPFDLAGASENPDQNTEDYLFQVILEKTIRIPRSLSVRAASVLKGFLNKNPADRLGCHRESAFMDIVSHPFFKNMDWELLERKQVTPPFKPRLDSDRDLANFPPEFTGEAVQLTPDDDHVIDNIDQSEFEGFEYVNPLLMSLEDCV

`CC(C)(C)n1nc(-c2cccc3ccccc23)c2c(N)ncnc21` [1NA-PP1] had an IC50 of around 100 nM.
